The record followed here is PMC7997411, “Discovery and Optimization of Selective Inhibitors of Meprin α (Part II)” (Pharmaceuticals, 2021).

The target of one data set is T1, MMP1 (Homo sapiens, UniProt P03956).
T1 construct: purchased R&D Systems 901-MP
T1 sequence (P03956 100-469): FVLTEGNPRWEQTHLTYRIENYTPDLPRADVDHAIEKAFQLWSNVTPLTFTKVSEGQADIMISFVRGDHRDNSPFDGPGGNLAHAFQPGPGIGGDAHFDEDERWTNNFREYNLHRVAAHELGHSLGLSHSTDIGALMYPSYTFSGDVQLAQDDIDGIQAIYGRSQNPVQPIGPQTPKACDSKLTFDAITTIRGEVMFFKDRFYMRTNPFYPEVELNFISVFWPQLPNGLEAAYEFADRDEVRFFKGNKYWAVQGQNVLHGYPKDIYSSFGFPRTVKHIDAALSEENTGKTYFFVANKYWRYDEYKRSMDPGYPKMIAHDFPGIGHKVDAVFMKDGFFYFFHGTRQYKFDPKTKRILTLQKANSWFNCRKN
In words: MMP assay (fluorogenic substrate ES010). Format: biochemical. The protocol: (§1) MMP-1, MMP-2, MMP-8, MMP-9, MMP-10, MMP-13, MMP-14, ADAM10, ADAM17 and Mca-KPLGL-Dpa-AR-NH2 fluorogenic peptide substrate were purchased from R&D Systems (cat # 901-MP, 902-MP, 908-MP, 911-MP, 910-MP, 511-MM, 918-MP, 936-AD, 930-ADB, and ES010, respectively). All common chemicals were purchased from Sigma. NFF449 was purchased from Tocris (cat# 1391) and actinonin was from Sigma-Aldrich, St. Louis, MO, USA (cat# 01809).
(§2) All assays followed the same general protocol. 5 µL of 2× enzyme solution (5 nM) in assay buffer (50 mM Tricine, 50 mM NaCl, 10 mM CaCl2, 0.05% Brij-35, pH 7.5) were added to solid-bottom black 384 plates (Nunc, cat# 264705). Next, test compounds and pharmacological controls were added to corresponding wells using a 384-pin tool device (V&P Scientific, San Diego). After 30 min incubation at RT, the reactions were started by addition of 5 µL of 2× solutions of MMP substrate (R&D Systems cat#: ES010, 20 µM). Reactions were incubated at RT for 1 h, after which the fluorescence was measured using the Synergy H4 multimode microplate reader (Biotek Instruments) (λexcitation = 324 nm, λemission = 390 nm). All compounds were tested in 10-point, 1:3 serial dilutions dose-response format starting with highest concentration of 100 µM. IC50 values were determined using non-linear regression analysis using the GraphPad Prism 8.0 suite of programs.

The next data set addresses T2, ADAM10 (Homo sapiens, UniProt O14672).
T2 construct: purchased R&D Systems 936-AD
T2 sequence (O14672 214-748): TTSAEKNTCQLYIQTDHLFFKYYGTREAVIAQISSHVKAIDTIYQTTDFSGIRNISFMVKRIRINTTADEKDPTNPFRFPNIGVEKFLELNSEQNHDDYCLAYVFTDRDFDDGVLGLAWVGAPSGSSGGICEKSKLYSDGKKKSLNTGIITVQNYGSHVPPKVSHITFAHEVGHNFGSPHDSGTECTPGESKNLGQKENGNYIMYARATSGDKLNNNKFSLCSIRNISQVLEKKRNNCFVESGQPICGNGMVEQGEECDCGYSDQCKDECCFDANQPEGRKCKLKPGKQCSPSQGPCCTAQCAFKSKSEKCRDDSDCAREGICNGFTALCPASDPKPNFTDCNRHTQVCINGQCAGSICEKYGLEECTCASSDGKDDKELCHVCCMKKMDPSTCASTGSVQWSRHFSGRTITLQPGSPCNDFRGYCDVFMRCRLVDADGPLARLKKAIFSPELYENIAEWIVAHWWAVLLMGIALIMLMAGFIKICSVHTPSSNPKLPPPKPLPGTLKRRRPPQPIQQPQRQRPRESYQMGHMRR
In words: ADAM10 assay. Format: biochemical. Here is the method:
All common chemicals were purchased from Sigma.
Both assays followed the same general protocol. […] After 30 min incubation at RT, the reactions were started by addition of 2.5 µL of 2× solutions of substrate (R&D Systems cat#: ES010, Mca-KPLGL-Dpa-AR-NH2, 20 µM). […] All compounds were tested in 10-point, 1:3 serial dilutions dose-response format starting with highest concentration of 100 µM. IC50 values were determined using non-linear regression analysis using the GraphPad Prism 8.0 suite of programs.

In the next data set the target is T3, MMP10 (Homo sapiens, UniProt P09238).
T3 construct: purchased R&D Systems 910-MP
T3 sequence (P09238 99-476): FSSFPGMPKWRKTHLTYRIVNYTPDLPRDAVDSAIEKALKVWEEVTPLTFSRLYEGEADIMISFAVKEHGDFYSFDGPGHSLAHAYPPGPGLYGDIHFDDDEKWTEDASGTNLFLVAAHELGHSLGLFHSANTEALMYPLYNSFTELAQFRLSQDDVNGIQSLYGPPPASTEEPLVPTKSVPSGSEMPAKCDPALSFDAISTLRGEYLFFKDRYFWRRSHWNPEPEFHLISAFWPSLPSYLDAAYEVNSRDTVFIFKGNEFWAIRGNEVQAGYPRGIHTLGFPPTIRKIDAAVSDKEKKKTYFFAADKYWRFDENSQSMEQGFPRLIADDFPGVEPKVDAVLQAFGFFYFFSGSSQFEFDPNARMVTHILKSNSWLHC
In words: MMP assay (fluorogenic substrate ES010). Type of data set: biochemical. The protocol: as §1, §2

Data set [1] concerns HEK293 (kidney) and BJ (skin fibroblasts) cells. In words: Cytotoxicity, CellTox Green assay. Type of data set: cell-based. Here is the method:
Figure 6 Characterization of SR24717 for effects on cell viability and cytotoxicity. (A) Effect of SR24717 on viability of WM266-4 (skin melanoma), HEK293 (kidney), and BJ (skin fibroblasts) cells. CellTiter Glo™ assay (Promega) was used after 72 h treatment. (B) Effect of SR24717 on viability of HEK293 (kidney) and BJ (skin fibroblasts) cells. The CellTox Green™ assay (Promega) was used. All experiments performed as 10-point 3-fold concentration-response curves in triplicate.

The subject of data set [2] is MMP-2, MMP-3, MMP-8, MMP-9, MMP-10, MMP-14, ADAM10, and ADAM17. In words: Selectivity panel of related metzincins. To be noted: all tested enzymes, Figure 4B. Type of data set: biochemical. Here is the method:
Both assays followed the same general protocol. 2.5 µL of 2× enzyme solution (20 nM) in assay buffer (10 mM HEPES, 0.001% Brij-35, pH 7.5) were added to solid bottom black 384 plates (Greiner, cat# 789075). Next, test compounds and pharmacological controls were added to corresponding wells using a 384-pin tool device (V&P Scientific, San Diego). After 30 min incubation at RT, the reactions were started by addition of 2.5 µL of 2× solutions of substrate (R&D Systems cat#: ES010, Mca-KPLGL-Dpa-AR-NH2, 20 µM). Reactions were incubated at RT for 2 h, after which the fluorescence was measured using a Perkin Elmer Viewlux multimode microplate imager (λexcitation = 324 nm, λemission = 393 nm). All compounds were tested in 10-point, 1:3 serial dilutions dose-response format starting with highest concentration of 100 µM. IC50 values were determined using non-linear regression analysis using the GraphPad Prism 8.0 suite of programs.
All assays followed the same general protocol. […] Reactions were incubated at RT for 1 h, after which the fluorescence was measured using the Synergy H4 multimode microplate reader (Biotek Instruments) (λexcitation = 324 nm, λemission = 390 nm). […] IC50 values were determined using non-linear regression analysis using the GraphPad Prism 8.0 suite of programs.

pIC50: −log10 of the molar value. A value given as a limit tells only on which side of the number the result lay.

As to `CCCCC[C@H](CC(=O)NO)C(=O)N[C@H](C(=O)N1CCC[C@H]1CO)C(C)C` [Actinonin, actinonin, reference compound], the negative logarithm of the IC50 (pIC50) on MMP1 was 7.00.

In the case of `COc1cc(OC)nc(SCc2nnc(SCC(=O)NO)n2-c2ccc(N(C)C)cc2)n1` [SR24717], the pIC50 (against ADAM10; at MMP10; in data set [2]) was less than 4.00 in each case. For the same molecule, in data set [1], the “concentration at which cytotoxicity was observed” value came out at 100 µM.

As usually defined, the pIC50 is the IC50 on a negative log10 scale, so that one unit is a factor of ten.
